# According to ChEMBL document CHEMBL4265936, “Pyrazolo[4,3-b]pyrimido[4,5-e][1,4]diazepine derivatives as new multi-targeted inhibitors of Aurora A/B and KDR” (Eur J Med Chem, 2018):
# How the values were obtained:
# [1] = test system: SGC-7901; experiment: Antiproliferative activity against human SGC7901 cells after 72 hrs by sulforhodamine B assay; assay type: functional, cell-based; details: SGC-7901, 72 h
# [2] = Tmax in ICR mouse at 25 mg/kg, po administered as single dose by LC-MS analysis; assay type: ADME, organism-based; details: in vivo
# [3] = target: Proto-oncogene tyrosine-protein kinase Src (Homo sapiens) (UniProt P12931); experiment: Inhibition of recombinant human c-SRC at 100 nM after 60 mins by ELISA relative to control
# Proto-oncogene tyrosine-protein kinase Src (Homo sapiens), sequence (P12931 2-536 limits assumed): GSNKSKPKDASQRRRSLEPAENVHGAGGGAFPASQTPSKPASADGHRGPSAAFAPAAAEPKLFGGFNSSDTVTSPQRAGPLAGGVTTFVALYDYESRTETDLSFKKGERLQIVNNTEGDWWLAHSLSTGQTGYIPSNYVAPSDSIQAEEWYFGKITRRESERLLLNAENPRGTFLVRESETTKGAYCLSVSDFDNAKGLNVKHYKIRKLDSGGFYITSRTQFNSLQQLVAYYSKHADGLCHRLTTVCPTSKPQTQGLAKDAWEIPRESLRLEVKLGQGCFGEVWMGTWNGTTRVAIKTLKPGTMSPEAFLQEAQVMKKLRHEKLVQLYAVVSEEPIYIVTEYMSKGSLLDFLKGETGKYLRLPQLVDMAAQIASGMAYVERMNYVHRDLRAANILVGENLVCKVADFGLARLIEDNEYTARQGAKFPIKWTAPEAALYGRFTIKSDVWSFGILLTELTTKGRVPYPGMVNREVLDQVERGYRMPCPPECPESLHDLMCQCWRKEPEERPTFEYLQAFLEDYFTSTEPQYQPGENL
# [4] = target: Receptor tyrosine-protein kinase erbB-4 (Homo sapiens) (UniProt Q15303); experiment: Inhibition of recombinant human Erbb4 at 100 nM after 60 mins by ELISA relative to control
# [5] = test system: SGC-7901; experiment: Cell cycle arrest in human SGC7901 cells assessed as accumulation at G2/M phase after 24 hrs by propidium iodide staining based flow cytometry; assay type: functional
# [6] = target: Vascular endothelial growth factor receptor 1 (Homo sapiens) (UniProt P17948); experiment: Inhibition of recombinant human VEGFR1 at 100 nM after 60 mins by ELISA relative to control
# [7] = target: Receptor tyrosine-protein kinase erbB-2 (Homo sapiens) (UniProt P04626); experiment: Inhibition of recombinant human Erbb2 at 1000 nM after 60 mins by ELISA relative to control
# Receptor tyrosine-protein kinase erbB-2 (Homo sapiens), sequence (P04626 whole entry): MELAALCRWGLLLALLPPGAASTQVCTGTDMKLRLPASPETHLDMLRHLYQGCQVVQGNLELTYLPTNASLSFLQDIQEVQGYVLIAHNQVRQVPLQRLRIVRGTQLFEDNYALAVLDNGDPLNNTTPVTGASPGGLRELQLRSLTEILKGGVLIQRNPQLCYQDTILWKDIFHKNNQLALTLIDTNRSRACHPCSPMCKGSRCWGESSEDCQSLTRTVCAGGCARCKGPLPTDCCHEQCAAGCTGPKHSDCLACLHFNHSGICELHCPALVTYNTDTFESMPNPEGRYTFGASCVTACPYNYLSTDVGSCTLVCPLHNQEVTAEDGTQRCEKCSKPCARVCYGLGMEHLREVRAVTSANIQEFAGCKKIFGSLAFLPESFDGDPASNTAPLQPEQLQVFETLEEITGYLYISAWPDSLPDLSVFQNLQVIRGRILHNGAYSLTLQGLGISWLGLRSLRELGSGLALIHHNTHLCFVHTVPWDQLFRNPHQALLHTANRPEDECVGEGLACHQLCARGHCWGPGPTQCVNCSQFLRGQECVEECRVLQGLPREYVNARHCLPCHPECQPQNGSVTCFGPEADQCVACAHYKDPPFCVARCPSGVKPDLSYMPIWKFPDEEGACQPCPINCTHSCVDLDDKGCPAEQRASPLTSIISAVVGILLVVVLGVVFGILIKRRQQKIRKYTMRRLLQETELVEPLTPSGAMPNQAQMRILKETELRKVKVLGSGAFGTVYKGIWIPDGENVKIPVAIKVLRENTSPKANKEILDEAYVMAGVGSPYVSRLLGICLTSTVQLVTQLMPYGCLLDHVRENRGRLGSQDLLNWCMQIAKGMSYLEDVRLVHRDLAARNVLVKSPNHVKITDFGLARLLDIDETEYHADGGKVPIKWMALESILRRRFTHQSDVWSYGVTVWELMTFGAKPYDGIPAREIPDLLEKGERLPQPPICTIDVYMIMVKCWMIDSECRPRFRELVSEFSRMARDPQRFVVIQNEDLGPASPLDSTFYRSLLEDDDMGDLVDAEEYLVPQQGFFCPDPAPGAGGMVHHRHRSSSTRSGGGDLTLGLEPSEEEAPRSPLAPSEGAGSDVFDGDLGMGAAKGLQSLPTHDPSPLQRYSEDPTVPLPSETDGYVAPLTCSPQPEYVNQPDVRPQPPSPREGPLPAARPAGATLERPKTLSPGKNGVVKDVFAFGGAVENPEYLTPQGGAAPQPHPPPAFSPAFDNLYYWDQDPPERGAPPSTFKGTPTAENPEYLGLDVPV
# [8] = target: Vascular endothelial growth factor receptor 1 (Homo sapiens) (UniProt P17948); experiment: Inhibition of recombinant human VEGFR1 at 1000 nM after 60 mins by ELISA relative to control
# [9] = test system: SNU-5; experiment: Antiproliferative activity against human SNU5 cells after 72 hrs by CCK8 assay; assay type: functional, cell-based; details: SNU-5, 72 h
# [10] = target: Receptor tyrosine-protein kinase erbB-2 (Homo sapiens) (UniProt P04626); experiment: Inhibition of recombinant human Erbb2 at 100 nM after 60 mins by ELISA relative to control
# [11] = test system: Mus musculus; experiment: AUC (0 to t) in ICR mouse at 25 mg/kg, po administered as single dose by LC-MS analysis; assay type: ADME, organism-based; details: in vivo
# [12] = target: Receptor tyrosine-protein kinase erbB-4 (Homo sapiens) (UniProt Q15303); experiment: Inhibition of recombinant human Erbb4 at 1000 nM after 60 mins by ELISA relative to control
# [13] = target: Ephrin type-A receptor 2 (Homo sapiens) (UniProt P29317); experiment: Inhibition of recombinant human EPHA2 at 100 nM after 60 mins by ELISA relative to control
# [14] = target: Epidermal growth factor receptor (Homo sapiens) (UniProt P00533); experiment: Inhibition of recombinant human EGFR at 100 nM after 60 mins by ELISA relative to control
# [15] = test system: SNU-5; experiment: Antitumor activity against human SNU5 cells xenografted in nude mouse assessed as delay in tumor growth at 20 mg/kg, po qd for 21 days relative to control; assay type: functional
# [16] = target: Platelet-derived growth factor receptor beta (Homo sapiens) (UniProt P09619); experiment: Inhibition of recombinant human PDGFRbeta at 100 nM after 60 mins by ELISA relative to control
# [17] = test system: Mus musculus; experiment: Toxicity in nude mouse xenografted with human SNU5 cells assessed as body weight at 20 mg/kg, po qd for 21 days (reference value: 19.6 g); assay type: organism-based; details: in vivo, 504 h
# [18] = test system: Mus musculus; experiment: Toxicity in nude mouse xenografted with human SNU5 cells assessed as mortality at 20 mg/kg, po qd for 21 days; assay type: organism-based; details: in vivo, 504 h
# [19] = Terminal elimination half life in ICR mouse at 25 mg/kg, po administered as single dose by LC-MS analysis; assay type: ADME, organism-based; details: in vivo, read-out: beta t1/2 (converted)
# [20] = test system: SNU-5; experiment: Cell cycle arrest in human SNU5 cells assessed as accumulation at G2/M phase after 24 hrs by propidium iodide staining based flow cytometry; assay type: functional
# [21] = Cmax in ICR mouse at 25 mg/kg, po administered as single dose by LC-MS analysis; assay type: ADME, organism-based; design: dose 25 mg/kg, route oral; details: in vivo
# [22] = target: Vascular endothelial growth factor receptor 2 (Homo sapiens, UniProt P35968); experiment: biochemical; assay type: cell-based, Sf21
# Vascular endothelial growth factor receptor 2, sequence (P35968 whole entry): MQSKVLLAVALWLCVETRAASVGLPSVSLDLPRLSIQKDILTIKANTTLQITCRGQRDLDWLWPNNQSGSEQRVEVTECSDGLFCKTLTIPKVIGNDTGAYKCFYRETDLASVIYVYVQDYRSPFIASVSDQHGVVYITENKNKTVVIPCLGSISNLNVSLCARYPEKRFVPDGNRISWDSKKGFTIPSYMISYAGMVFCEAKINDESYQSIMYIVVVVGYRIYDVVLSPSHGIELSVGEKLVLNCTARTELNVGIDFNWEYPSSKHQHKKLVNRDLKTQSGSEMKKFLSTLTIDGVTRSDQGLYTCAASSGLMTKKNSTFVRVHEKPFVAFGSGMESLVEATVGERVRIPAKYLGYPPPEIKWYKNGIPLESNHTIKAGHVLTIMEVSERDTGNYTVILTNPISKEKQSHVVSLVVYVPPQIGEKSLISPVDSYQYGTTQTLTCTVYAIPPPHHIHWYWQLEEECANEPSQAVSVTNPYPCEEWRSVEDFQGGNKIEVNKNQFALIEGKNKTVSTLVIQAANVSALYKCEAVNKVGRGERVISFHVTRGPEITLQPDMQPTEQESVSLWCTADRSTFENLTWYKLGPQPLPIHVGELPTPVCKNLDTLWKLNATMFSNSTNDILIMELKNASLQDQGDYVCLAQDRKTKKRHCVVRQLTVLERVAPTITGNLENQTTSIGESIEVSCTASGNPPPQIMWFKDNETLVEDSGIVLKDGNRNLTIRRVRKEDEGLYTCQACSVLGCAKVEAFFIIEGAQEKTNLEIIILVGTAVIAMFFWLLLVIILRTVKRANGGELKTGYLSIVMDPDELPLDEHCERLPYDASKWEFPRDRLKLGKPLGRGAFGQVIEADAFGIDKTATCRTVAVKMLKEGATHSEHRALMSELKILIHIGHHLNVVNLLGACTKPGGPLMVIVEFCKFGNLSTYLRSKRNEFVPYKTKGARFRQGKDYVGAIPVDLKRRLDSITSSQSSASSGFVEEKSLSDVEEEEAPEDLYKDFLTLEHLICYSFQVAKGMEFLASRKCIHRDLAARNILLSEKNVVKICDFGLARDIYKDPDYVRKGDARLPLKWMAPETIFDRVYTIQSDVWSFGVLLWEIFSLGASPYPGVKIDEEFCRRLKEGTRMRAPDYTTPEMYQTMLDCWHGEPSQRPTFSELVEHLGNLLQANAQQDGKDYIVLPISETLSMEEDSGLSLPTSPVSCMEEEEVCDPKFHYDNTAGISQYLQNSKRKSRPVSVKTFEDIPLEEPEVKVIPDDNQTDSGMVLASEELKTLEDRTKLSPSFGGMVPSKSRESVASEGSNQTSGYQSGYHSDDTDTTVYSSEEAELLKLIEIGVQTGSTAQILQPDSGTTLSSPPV
# Description: Inhibition of recombinant human N-terminal His6-tagged KDR (790 to end residues) expressed in baculovirus infected Sf21 insect cells after 60 mins by ELISA
# [23] = Clearance in ICR mouse at 5 mg/kg, iv administered as single dose by LC-MS analysis; assay type: ADME, organism-based; details: in vivo
# [24] = test system: BGC-823; experiment: Antiproliferative activity against human BGC823 cells after 72 hrs by sulforhodamine B assay; assay type: functional, cell-based; details: BGC-823, 72 h
# [25] = MRT in ICR mouse at 5 mg/kg, iv administered as single dose by LC-MS analysis; assay type: ADME, organism-based; details: in vivo
# [26] = test system: MKN-74; experiment: Cell cycle arrest in human MKN74 cells assessed as accumulation at G2/M phase after 24 hrs by propidium iodide staining based flow cytometry; assay type: functional
# [27] = target: Proto-oncogene tyrosine-protein kinase receptor Ret (Homo sapiens) (UniProt P07949); experiment: Inhibition of recombinant human RET at 100 nM after 60 mins by ELISA relative to control
# [28] = target: Epidermal growth factor receptor (Homo sapiens) (UniProt P00533); details: at 1000 nM
# Description: Inhibition of recombinant human EGFR at 1000 nM after 60 mins by ELISA relative to control
# [29] = target: Insulin-like growth factor 1 receptor (Homo sapiens) (UniProt P08069); experiment: Inhibition of recombinant human IGF1R at 100 nM after 60 mins by ELISA relative to control
# [30] = target: Tyrosine-protein kinase ABL1 (Homo sapiens) (UniProt P00519); details: at 1000 nM
# Tyrosine-protein kinase ABL1 (Homo sapiens), sequence (P00519 whole entry): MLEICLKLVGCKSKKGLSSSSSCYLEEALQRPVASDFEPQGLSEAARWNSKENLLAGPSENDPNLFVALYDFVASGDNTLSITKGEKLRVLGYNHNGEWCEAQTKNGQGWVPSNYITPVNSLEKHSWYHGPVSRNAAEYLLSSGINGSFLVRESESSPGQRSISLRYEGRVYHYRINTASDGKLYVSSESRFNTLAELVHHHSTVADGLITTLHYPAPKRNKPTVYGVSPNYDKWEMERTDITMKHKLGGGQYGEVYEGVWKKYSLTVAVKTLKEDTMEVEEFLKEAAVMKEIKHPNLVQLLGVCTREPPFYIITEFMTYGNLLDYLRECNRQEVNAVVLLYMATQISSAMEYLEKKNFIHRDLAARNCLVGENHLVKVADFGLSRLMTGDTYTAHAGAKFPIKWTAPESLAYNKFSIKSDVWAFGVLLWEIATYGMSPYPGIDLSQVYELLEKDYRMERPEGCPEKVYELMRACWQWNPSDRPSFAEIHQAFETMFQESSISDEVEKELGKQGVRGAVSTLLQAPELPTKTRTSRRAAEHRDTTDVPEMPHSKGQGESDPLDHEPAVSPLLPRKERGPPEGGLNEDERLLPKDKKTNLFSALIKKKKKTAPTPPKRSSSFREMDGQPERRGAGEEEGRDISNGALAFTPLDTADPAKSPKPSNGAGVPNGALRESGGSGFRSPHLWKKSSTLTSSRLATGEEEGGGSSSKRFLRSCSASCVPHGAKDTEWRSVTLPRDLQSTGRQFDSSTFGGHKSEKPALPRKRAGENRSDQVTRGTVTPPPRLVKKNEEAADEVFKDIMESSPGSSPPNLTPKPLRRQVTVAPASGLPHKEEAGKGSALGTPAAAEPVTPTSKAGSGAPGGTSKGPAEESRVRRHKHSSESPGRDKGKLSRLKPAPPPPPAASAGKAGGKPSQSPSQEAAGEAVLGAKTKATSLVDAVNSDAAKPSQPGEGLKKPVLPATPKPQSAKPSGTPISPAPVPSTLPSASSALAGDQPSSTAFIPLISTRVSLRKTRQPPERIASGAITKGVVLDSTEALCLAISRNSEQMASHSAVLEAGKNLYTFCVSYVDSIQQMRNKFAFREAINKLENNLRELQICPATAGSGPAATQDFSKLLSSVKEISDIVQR
# Description: Inhibition of recombinant human ABL at 1000 nM after 60 mins by ELISA relative to control
# [31] = target: Platelet-derived growth factor receptor beta (Homo sapiens) (UniProt P09619); experiment: Inhibition of recombinant human PDGFRbeta at 1000 nM after 60 mins by ELISA relative to control
# [32] = Oral bioavailability in ICR mouse at 25 mg/kg administered as single dose by LC-MS analysis; assay type: ADME, organism-based; details: in vivo
# [33] = target: Insulin-like growth factor 1 receptor (Homo sapiens) (UniProt P08069); experiment: Inhibition of recombinant human IGF1R at 1000 nM after 60 mins by ELISA relative to control
# [34] = target: T1, Aurora kinase A (Homo sapiens, UniProt O14965); experiment: Inhibition of Aurora A (unknown origin) using STK S2 as substrate after 40 mins by HTRF assay
# T1 sequence (O14965 whole entry): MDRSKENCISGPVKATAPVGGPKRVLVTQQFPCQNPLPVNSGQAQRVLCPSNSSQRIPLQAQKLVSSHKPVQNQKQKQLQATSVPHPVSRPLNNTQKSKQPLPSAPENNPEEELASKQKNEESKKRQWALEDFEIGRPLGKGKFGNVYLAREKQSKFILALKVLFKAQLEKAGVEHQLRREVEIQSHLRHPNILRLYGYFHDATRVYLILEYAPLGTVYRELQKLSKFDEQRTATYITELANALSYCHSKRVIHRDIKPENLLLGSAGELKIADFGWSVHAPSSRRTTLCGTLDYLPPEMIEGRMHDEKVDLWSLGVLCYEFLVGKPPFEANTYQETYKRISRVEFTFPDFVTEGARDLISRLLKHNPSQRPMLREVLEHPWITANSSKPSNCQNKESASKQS
# [35] = test system: Mus musculus; experiment: AUC (0 to t) in ICR mouse at 5 mg/kg, iv administered as single dose by LC-MS analysis; assay type: ADME, organism-based; details: in vivo
# [36] = target: Tyrosine-protein kinase ABL1 (Homo sapiens) (UniProt P00519); experiment: Inhibition of recombinant human ABL at 100 nM after 60 mins by ELISA relative to control
# [37] = target: Aurora kinase B (Homo sapiens, UniProt Q96GD4); experiment: Inhibition of Aurora B (unknown origin) using STK S2 as substrate after 30 mins by HTRF assay
# Aurora kinase B, sequence (Q96GD4 whole entry): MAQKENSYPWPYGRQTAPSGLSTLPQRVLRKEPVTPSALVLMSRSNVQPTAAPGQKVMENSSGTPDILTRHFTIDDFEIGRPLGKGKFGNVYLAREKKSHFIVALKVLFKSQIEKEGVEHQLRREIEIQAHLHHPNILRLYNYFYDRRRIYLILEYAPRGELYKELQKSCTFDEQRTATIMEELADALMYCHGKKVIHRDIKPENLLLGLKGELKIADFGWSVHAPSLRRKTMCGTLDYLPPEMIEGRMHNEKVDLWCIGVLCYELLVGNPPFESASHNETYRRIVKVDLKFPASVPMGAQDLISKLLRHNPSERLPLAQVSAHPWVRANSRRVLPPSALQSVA
# [38] = target: Proto-oncogene tyrosine-protein kinase Src (Homo sapiens) (UniProt P12931); details: at 1000 nM
# Description: Inhibition of recombinant human c-SRC at 1000 nM after 60 mins by ELISA relative to control
# [39] = test system: MKN-45; experiment: Cell cycle arrest in human MKN45 cells assessed as accumulation at G2/M phase after 24 hrs by propidium iodide staining based flow cytometry; assay type: functional
# [40] = test system: MKN-74; experiment: Antiproliferative activity against human MKN74 cells after 72 hrs by sulforhodamine B assay; assay type: functional, cell-based; details: MKN-74, 72 h
# [41] = target: Proto-oncogene tyrosine-protein kinase receptor Ret (Homo sapiens) (UniProt P07949); experiment: Inhibition of recombinant human RET at 1000 nM after 60 mins by ELISA relative to control
# [42] = Volume of distribution at steady state in ICR mouse at 5 mg/kg, iv administered as single dose by LC-MS analysis; assay type: ADME, organism-based; details: in vivo, read-out: Vdss
# [43] = Terminal elimination half life in ICR mouse at 5 mg/kg, iv administered as single dose by LC-MS analysis; assay type: ADME, organism-based; details: in vivo, read-out: beta t1/2 (converted)
# [44] = test system: MKN-45; experiment: Antiproliferative activity against human MKN45 cells after 72 hrs by sulforhodamine B assay; assay type: functional, cell-based; details: MKN-45, 72 h
smiles,measurement,setting,value
Cc1ccc(C2=Nc3c(n[nH]c3C)Nc3nc(N4CCOCC4)ncc32)cc1,IC50,[1],> 10 µM
same,Tmax,[2],0.5 h
same,inhibition,[3],0%
same,inhibition,[4],12%
same,Activity,[5],Dose-dependent effect
same,inhibition,[6],0%
same,inhibition,[7],0%
same,inhibition,[8],28.1%
same,IC50,[9],1.27 µM
same,inhibition,[10],3%
same,AUCt,[11],15335 ng·mL·h
same,inhibition,[12],17.5%
same,inhibition,[13],3.9%
same,inhibition,[14],24.5%
same,T/C,[15],61.63%
same,inhibition,[16],13.2%
same,Activity,[17],18.4 g
same,Activity,[18],Non-Toxic
same,half-life,[19],3.27 h
same,Activity,[20],Dose-dependent effect
same,Cmax,[21],2780 ng/mL
same,IC50,[22],0.0216 µM
same,clearance,[23],17.3 mL/min/kg
same,IC50,[24],> 10 µM
same,MRT,[25],1.93 h
same,Activity,[26],Dose-dependent effect
same,inhibition,[27],28.7%
same,inhibition,[28],37.4%
same,inhibition,[29],1.4%
same,inhibition,[30],0%
same,inhibition,[31],41%
same,bioavailability,[32],63.8%
same,inhibition,[33],26.8%
same,IC50,[34],0.0462 µM
same,AUCt,[35],4724 ng·mL·h
same,inhibition,[36],0%
same,IC50,[37],0.0376 µM
same,inhibition,[38],32%
same,Activity,[39],Dose-dependent effect
same,IC50,[40],3.14 µM
same,inhibition,[41],68.7%
same,Vd,[42],2.01 L/kg
same,half-life,[43],1.53 h
same,IC50,[44],1.26 µM
CN(C)C/C=C/C(=O)Nc1cc2c(Nc3ccc(F)c(Cl)c3)ncnc2cc1O[C@H]1CCOC1,inhibition,[7],97.6%
CSc1ncc2c(n1)Nc1n[nH]c(C)c1N=C2c1cccc(Cl)c1,IC50,[22],0.141 µM
same,IC50,[34],0.102 µM
same,IC50,[37],1 µM
CSc1ncc2c(n1)Nc1n[nH]c(C)c1N=C2c1ccccc1Cl,IC50,[22],0.0837 µM
same,IC50,[34],0.094 µM
same,IC50,[37],0.278 µM
CSc1ncc2c(n1)Nc1n[nH]c(C)c1N=C2c1ccccc1C,IC50,[22],0.11 µM
same,IC50,[34],0.075 µM
same,IC50,[37],0.611 µM
CSc1ncc2c(n1)Nc1n[nH]c(C)c1N=C2c1cccc(F)c1,IC50,[22],0.33 µM
same,IC50,[34],0.167 µM
same,IC50,[37],0.611 µM
COc1ccccc1C1=Nc2c(n[nH]c2C)Nc2nc(SC)ncc21,IC50,[22],0.102 µM
same,IC50,[34],0.191 µM
same,IC50,[37],2.32 µM
Cc1ccc(C2=Nc3c(n[nH]c3C)Nc3nc(N4CCCCC4)ncc32)cc1,IC50,[22],0.03 µM
same,IC50,[34],0.0776 µM
same,IC50,[37],0.0503 µM
Cc1ccc(C2=Nc3c(n[nH]c3C)Nc3nc(N4CCN(C)CC4)ncc32)cc1,IC50,[22],0.0247 µM
same,IC50,[34],0.108 µM
same,IC50,[37],0.086 µM
COc1cccc2c1C(=O)c1c(O)c3c(c(O)c1C2=O)C[C@@](O)(C(=O)CO)C[C@@H]3O[C@H]1C[C@H](N)[C@H](O)[C@H](C)O1 [DOXORUBICIN],IC50,[1],0.13 µM
same,IC50,[9],0.237 µM
same,IC50,[24],0.405 µM
same,IC50,[40],0.204 µM
same,IC50,[44],0.127 µM
CNc1ncc2c(n1)Nc1n[nH]c(C)c1N=C2c1ccc(C)cc1,IC50,[22],0.199 µM
same,IC50,[34],0.397 µM
same,IC50,[37],0.352 µM
